# Measured values taken from patent publication US20220339143A1, “TAK-925 FOR USE IN TREATING NARCOLEPSY” (Takeda Pharmaceutical Company Limited, priority 2019, published 2022).
# Tested on: patients with narcolepsy type 1 (NT1)
# Assay: Subjective daytime sleepiness as assessed by Karolinska Sleepiness Scale (KSS), single dose (Cohorts 5, 6, 7)
# Format: in vivo, human
# Conditions: for KSS Change from Baseline, Mean / KSS Change from Baseline, Median / KSS Observed Value at Visit, Mean / KSS Observed Value at Visit, Median: Cmpd A 5 mg (N = 6)
# Description: Daytime sleepiness as assessed by the Karolinska Sleepiness Scale (KSS).
# Daytime sleepiness as assessed by KSS at predose and hourly until 11 hours after the start of infusion is presented in Table 13 as summary, in Table 14 as ANOVA and in Table 15 as ANOVA of change from baseline.
structure (smiles),measurement,setting,value
"COC(=O)N1CCC[C@H](NS(C)(=O)=O)[C@@H]1CO[C@H]1CC[C@@H](c2ccccc2)CC1 [Compound A, methyl (2R,3S)-3-((methylsulfonyl)amino)-2-(((cis-4-phenylcyclohexyl)oxy)methyl)piperidine-1-carboxylate]","LS mean difference (95% CI) of KSS vs placebo during the 9 hour infusion, upper end of range",5 mg,"−0.667 (−2.641, 1.307)"
same,"Change from Baseline in KSS, ANOVA Estimate (Cmpd A - Placebo)","5 mg, 1 hr",−2.833
same,"KSS, ANOVA Estimate (Cmpd A - Placebo)","5 mg, 1 hr",−2.000
same,"Change from Baseline in KSS, ANOVA Estimate (Cmpd A - Placebo)","5 mg, 2 hr",−4.333
same,"KSS, ANOVA Estimate (Cmpd A - Placebo)","5 mg, 2 hr",−3.500
same,"Change from Baseline in KSS, ANOVA Estimate (Cmpd A - Placebo)","5 mg, 3 hr",−2.167
same,"KSS, ANOVA Estimate (Cmpd A - Placebo)","5 mg, 3 hr",−1.333
same,"Change from Baseline in KSS, ANOVA Estimate (Cmpd A - Placebo)","5 mg, 4 hr",−4.167
same,"KSS, ANOVA Estimate (Cmpd A - Placebo)","5 mg, 4 hr",−3.333
same,"Change from Baseline in KSS, ANOVA Estimate (Cmpd A - Placebo)","5 mg, 5 hr",−3.500
same,"KSS, ANOVA Estimate (Cmpd A - Placebo)","5 mg, 5 hr",−2.667
same,"Change from Baseline in KSS, ANOVA Estimate (Cmpd A - Placebo)","5 mg, 6 hr",−4.333
same,"KSS, ANOVA Estimate (Cmpd A - Placebo)","5 mg, 6 hr",−3.500
same,"Change from Baseline in KSS, ANOVA Estimate (Cmpd A - Placebo)","5 mg, 7 hr",−4.333
same,"KSS, ANOVA Estimate (Cmpd A - Placebo)","5 mg, 7 hr",−3.500
same,"Change from Baseline in KSS, ANOVA Estimate (Cmpd A - Placebo)","5 mg, 8 hr",−3.500
same,"KSS, ANOVA Estimate (Cmpd A - Placebo)","5 mg, 8 hr",−2.667
same,"Change from Baseline in KSS, ANOVA Estimate (Cmpd A - Placebo)","5 mg, 9 hr",−1.500
same,"KSS, ANOVA Estimate (Cmpd A - Placebo)","5 mg, 9 hr",−0.667
same,"Change from Baseline in KSS, ANOVA Estimate (Cmpd A - Placebo)","5 mg, 10 hr",−2.000
same,"KSS, ANOVA Estimate (Cmpd A - Placebo)","5 mg, 10 hr",−1.167
same,"Change from Baseline in KSS, ANOVA Estimate (Cmpd A - Placebo)","5 mg, 11 hr",−0.167
same,"KSS, ANOVA Estimate (Cmpd A - Placebo)","5 mg, 11 hr",0.667
same,"LS mean difference (95% CI) of KSS vs placebo during the 9 hour infusion, lower end of range","5 mg, at 2 hour, 6 hour and 7 hour after the start of infusion",−3.500
same,"LS mean difference (95% CI) of KSS vs placebo during the 9 hour infusion, lower end of range",11.2 mg,"−4.000 (−7.331, −0.669)"
same,"LS mean difference (95% CI) of KSS vs placebo during the 9 hour infusion, upper end of range",11.2 mg,"−1.500 (−3.439, 0.439)"
same,"Change from Baseline in KSS, ANOVA Estimate (Cmpd A - Placebo)","11.2 mg, 1 hr",−4.500
same,"KSS, ANOVA Estimate (Cmpd A - Placebo)","11.2 mg, 1 hr",−3.500
same,"Change from Baseline in KSS, ANOVA Estimate (Cmpd A - Placebo)","11.2 mg, 2 hr",−4.500
same,"KSS, ANOVA Estimate (Cmpd A - Placebo)","11.2 mg, 2 hr",−3.500
same,"Change from Baseline in KSS, ANOVA Estimate (Cmpd A - Placebo)","11.2 mg, 3 hr",−2.500
same,"KSS, ANOVA Estimate (Cmpd A - Placebo)","11.2 mg, 3 hr",−1.500
same,"Change from Baseline in KSS, ANOVA Estimate (Cmpd A - Placebo)","11.2 mg, 4 hr",−5.000
same,"KSS, ANOVA Estimate (Cmpd A - Placebo)","11.2 mg, 4 hr",−4.000
same,"Change from Baseline in KSS, ANOVA Estimate (Cmpd A - Placebo)","11.2 mg, 5 hr",−4.000
same,"KSS, ANOVA Estimate (Cmpd A - Placebo)","11.2 mg, 5 hr",−3.000
same,"Change from Baseline in KSS, ANOVA Estimate (Cmpd A - Placebo)","11.2 mg, 6 hr",−4.000
same,"KSS, ANOVA Estimate (Cmpd A - Placebo)","11.2 mg, 6 hr",−3.000
same,"Change from Baseline in KSS, ANOVA Estimate (Cmpd A - Placebo)","11.2 mg, 7 hr",−4.500
same,"KSS, ANOVA Estimate (Cmpd A - Placebo)","11.2 mg, 7 hr",−3.500
same,"Change from Baseline in KSS, ANOVA Estimate (Cmpd A - Placebo)","11.2 mg, 8 hr",−3.500
same,"KSS, ANOVA Estimate (Cmpd A - Placebo)","11.2 mg, 8 hr",−2.500
same,"Change from Baseline in KSS, ANOVA Estimate (Cmpd A - Placebo)","11.2 mg, 9 hr",−3.000
same,"KSS, ANOVA Estimate (Cmpd A - Placebo)","11.2 mg, 9 hr",−2.000
same,"Change from Baseline in KSS, ANOVA Estimate (Cmpd A - Placebo)","11.2 mg, 10 hr",−2.500
same,"KSS, ANOVA Estimate (Cmpd A - Placebo)","11.2 mg, 10 hr",−1.500
same,"Change from Baseline in KSS, ANOVA Estimate (Cmpd A - Placebo)","11.2 mg, 11 hr",−2.000
same,"KSS, ANOVA Estimate (Cmpd A - Placebo)","11.2 mg, 11 hr",−1.000
same,"LS mean difference (95% CI) of KSS vs placebo during the 9 hour infusion, lower end of range",44.8 mg,"−6.947 (−9.139, −4.756)"
same,"LS mean difference (95% CI) of KSS vs placebo during the 9 hour infusion, upper end of range",44.8 mg,"−2.868 (−6.851, 1.114)"
same,"Change from Baseline in KSS, ANOVA Estimate (Cmpd A - Placebo)","44.8 mg, 1 hr",−5.237
same,"KSS, ANOVA Estimate (Cmpd A - Placebo)","44.8 mg, 1 hr",−6.947
same,"Change from Baseline in KSS, ANOVA Estimate (Cmpd A - Placebo)","44.8 mg, 2 hr",−3.053
same,"KSS, ANOVA Estimate (Cmpd A - Placebo)","44.8 mg, 2 hr",−4.763
same,"Change from Baseline in KSS, ANOVA Estimate (Cmpd A - Placebo)","44.8 mg, 3 hr",−1.553
same,"KSS, ANOVA Estimate (Cmpd A - Placebo)","44.8 mg, 3 hr",−3.263
same,"Change from Baseline in KSS, ANOVA Estimate (Cmpd A - Placebo)","44.8 mg, 4 hr",−2.184
same,"KSS, ANOVA Estimate (Cmpd A - Placebo)","44.8 mg, 4 hr",−3.895
same,"Change from Baseline in KSS, ANOVA Estimate (Cmpd A - Placebo)","44.8 mg, 5 hr",−2.026
same,"KSS, ANOVA Estimate (Cmpd A - Placebo)","44.8 mg, 5 hr",−3.737
same,"Change from Baseline in KSS, ANOVA Estimate (Cmpd A - Placebo)","44.8 mg, 6 hr",−1.158
same,"KSS, ANOVA Estimate (Cmpd A - Placebo)","44.8 mg, 6 hr",−2.868
same,"Change from Baseline in KSS, ANOVA Estimate (Cmpd A - Placebo)","44.8 mg, 7 hr",−3.737
same,"KSS, ANOVA Estimate (Cmpd A - Placebo)","44.8 mg, 7 hr",−5.447
same,"Change from Baseline in KSS, ANOVA Estimate (Cmpd A - Placebo)","44.8 mg, 8 hr",−2.921
same,"KSS, ANOVA Estimate (Cmpd A - Placebo)","44.8 mg, 8 hr",−4.632
same,"Change from Baseline in KSS, ANOVA Estimate (Cmpd A - Placebo)","44.8 mg, 9 hr",−2.868
same,"KSS, ANOVA Estimate (Cmpd A - Placebo)","44.8 mg, 9 hr",−4.579
same,"Change from Baseline in KSS, ANOVA Estimate (Cmpd A - Placebo)","44.8 mg, 10 hr",−0.632
same,"KSS, ANOVA Estimate (Cmpd A - Placebo)","44.8 mg, 10 hr",−2.342
same,"Change from Baseline in KSS, ANOVA Estimate (Cmpd A - Placebo)","44.8 mg, 11 hr",0.974
same,"KSS, ANOVA Estimate (Cmpd A - Placebo)","44.8 mg, 11 hr",−0.737
same,"KSS Change from Baseline, Mean",1 hr after start of infusion,−2.3
same,"KSS Change from Baseline, Median",1 hr after start of infusion,−2.5
same,"KSS Observed Value at Visit, Mean",1 hr after start of infusion,2.7
same,"KSS Observed Value at Visit, Median",1 hr after start of infusion,2.5
same,"KSS Change from Baseline, Mean",2 hr after start of infusion,−2.8
same,"KSS Change from Baseline, Median",2 hr after start of infusion,−2.5
same,"KSS Observed Value at Visit, Mean",2 hr after start of infusion,2.2
same,"KSS Observed Value at Visit, Median",2 hr after start of infusion,2.0
same,"KSS Change from Baseline, Mean",3 hr after start of infusion,−3.2
same,"KSS Change from Baseline, Median",3 hr after start of infusion,−3.5
same,"KSS Observed Value at Visit, Mean",3 hr after start of infusion,1.8
same,"KSS Observed Value at Visit, Median",3 hr after start of infusion,1.5
same,"KSS Change from Baseline, Mean",4 hr after start of infusion,−2.8
same,"KSS Change from Baseline, Median",4 hr after start of infusion,−2.5
same,"KSS Observed Value at Visit, Mean",4 hr after start of infusion,2.2
same,"KSS Observed Value at Visit, Median",4 hr after start of infusion,1.5
same,"KSS Change from Baseline, Mean",5 hr after start of infusion,−3.0
same,"KSS Change from Baseline, Median",5 hr after start of infusion,−3.0
same,"KSS Observed Value at Visit, Mean",5 hr after start of infusion,2.0
same,"KSS Observed Value at Visit, Median",5 hr after start of infusion,2.0
same,"KSS Change from Baseline, Mean",6 hr after start of infusion,−3.2
same,"KSS Change from Baseline, Median",6 hr after start of infusion,−3.5
same,"KSS Observed Value at Visit, Mean",6 hr after start of infusion,1.8
same,"KSS Observed Value at Visit, Median",6 hr after start of infusion,1.5
same,"KSS Change from Baseline, Mean",7 hr after start of infusion,−2.5
same,"KSS Change from Baseline, Median",7 hr after start of infusion,−2.5
same,"KSS Observed Value at Visit, Mean",7 hr after start of infusion,2.5
same,"KSS Observed Value at Visit, Median",7 hr after start of infusion,2.5
same,"KSS Change from Baseline, Mean",8 hr after start of infusion,−2.7
same,"KSS Change from Baseline, Median",8 hr after start of infusion,−3.0
same,"KSS Observed Value at Visit, Mean",8 hr after start of infusion,2.3
